PMC9727733, “Liposomal Binuclear Ir(III)–Cu(II) Coordination Compounds with Phosphino-Fluoroquinolone Conjugates for Human Prostate Carcinoma Treatment” (Inorganic Chemistry, 2022)

Columns and labels:
Type in all cases: cell-based
[1] = test system: A549 cell line (human lung adenocarcinoma); assay: MTT cytotoxicity assay, A549 cells; conditions: for IC50: MTT
Experimental: (§1) The cytotoxicity of the four novel heteronuclear Ir^III–Cu^II complexes was assessed against four selected cancer cell lines: A549, MCF7, DU145, WM2664, and one normal HEK293T cell line in vitro (Table 3). IC50 values (concentration of a drug required to inhibit the growth of 50% of the cells) were assessed in two different approaches, i.e., after 24 or 24 + 48 h, using the 3-(4,5-dimethylthiazole)-2,5-diphenyltetrazolium bromide (MTT) method. Cancerous and noncancerous diseases have also been treated with the well-known drug cisplatin in the same concentration range as investigated complexes and are considered as a control. IC50 values have been determined from the plots of cell viability at various concentrations of each compound by matching appropriate dose–response curves and are presented in Table 3. […]
(§2) MCF7 cell line (human breast adenocarcinoma, morphology: epithelial-like, ATCC: HTB-22), A549 cell line (human lung adenocarcinoma, morphology: epithelial, ATCC: CCL-185) and HaCaT (human keratinocyte) were cultured in Dulbecco’s Modified Eagle’s Medium (DMEM, Corning) with phenol red, supplemented with 10% fetal bovine serum (FBS) and with 1% streptomycin/penicillin. WM266-4 cell line […]
(§3) (human skin (metastasis), morphology: epithelial, ATCC CRL-1676) were cultured in EMEM (EBSS) + 2mM Glutamine + 1% Non-Essential Amino Acids (NEAA) + 1% Sodium Pyruvate (NaP) + 10% Foetal Bovine Serum (FBS). DU-145 cell line (human prostate carcinoma) and HEK293T cell line (human embryonic kidney) were cultured in minimum essential medium (MEM, Corning) with only 10% fetal bovine serum (FBS). Cultures were incubated at 37 °C under a humidified atmosphere containing 5% CO2.
(§4) Cells were passaged using a solution containing 0.05% trypsin and 0.5 mM EDTA. All media and other ingredients were purchased from ALAB, Poland.
(§5) Since most of the studied compounds are insoluble in aqueous media, therefore they needed to be pre-dissolved in DMSO for biological tests. Cytotoxicity was assessed by MTT assay performed according to the protocols described previously. (70) In brief, 1 × 10^4 cells per well, seeded in 96-well flat-bottom microtiter plate, were incubated with the tested complexes (1, 2, 3 and 4) at various concentrations for 24 h.
(§6) After that time, solutions of compounds were washed out, cells were washed thee time with PBS and fresh medium was applied. Each compound concentration was tested in five replicates and repeated at least three times. Determined values of IC50 (concentration of a drug required to inhibit the growth of 50% of the cells) are given as mean + S.D. (Standard Deviation). Furthermore, post-treatment survival assessment of the treated cells was analyzed under a fluorescence inverted microscope (Olympus IC51, Japan) with an excitation filter 470/20 nm. For this, cells were stained with two versatile fluorescence dyes: fluorescein […]
(§7) diacetate (FDA, 5 mg/mL) and propidium iodide (PI, 5 mg/mL) in standard conditions in the dark for 20 min. Before visualization dyes were removed and cells were washed with PBS twice. IC50 values were determined, after 72 h, from the plots of cell viability in the presence of various concentrations of each compound by matching dose–response curves. […]
(4) In brief, before imaging, A549 and Du145 cells were seeded on microscopic slides at a […]

[2] = test system: MCF7 cell line (human breast adenocarcinoma); assay: MTT cytotoxicity assay, MCF7 cells
Experimental: as §1, §2, §3, §4, §5, §6, §7

[3] = test system: DU-145 cell line (human prostate carcinoma); assay: MTT cytotoxicity assay, DU145 cells
Experimental: as §1
Bovine Serum (FBS). DU-145 cell line (human prostate carcinoma) and HEK293T cell line (human embryonic kidney) were cultured in minimum essential medium (MEM, Corning) with only 10% fetal bovine serum (FBS). Cultures were incubated at 37 °C under a humidified atmosphere containing 5% CO2.
as §4, §5, §6, §7

[4] = test system: WM2664 cells (WM266-4, human skin metastasis); assay: MTT cytotoxicity assay, WM2664 cells
Experimental: as §1, §2, §3, §4, §5, §6, §7

[5] = test system: HEK293T cell line (human embryonic kidney); assay: MTT cytotoxicity assay, HEK293T normal cells
Experimental: The cytotoxicity of the four novel heteronuclear Ir^III–Cu^II complexes was assessed against four selected cancer cell lines: A549, MCF7, DU145, WM2664, and one normal HEK293T cell line in vitro (Table 3). IC50 values (concentration of a drug required to inhibit the growth of 50% of the cells) were assessed in two different approaches, i.e., after 24 or 24 + 48 h, using the 3-(4,5-dimethylthiazole)-2,5-diphenyltetrazolium bromide (MTT) method. Cancerous and noncancerous diseases have also been treated with the well-known drug cisplatin in the same concentration range as investigated complexes and are considered as a control. IC50 values have been determined from the plots of cell viability at various concentrations of each compound by matching appropriate dose–response curves and are presented in Table 3.
as §3, §4, §5, §6, §7

[6] = A549, 72 h (24 + 48 h recovery)
[7] = MCF7, 72 h (24 + 48 h recovery)
[8] = DU145, 72 h (24 + 48 h recovery)
[9] = WM2664, 72 h (24 + 48 h recovery)

| Compound | IC50 ([1]; A549, 24 h treatment) [µM] | IC50 [1, 6] [µM] | IC50 ([2]; MCF7, 24 h treatment) [µM] | IC50 [2, 7] [µM] | IC50 ([3]; DU145, 24 h treatment) [µM] | IC50 [3, 8] [µM] | IC50 ([4]; WM2664, 24 h treatment) [µM] | IC50 [4, 9] [µM] | IC50 ([5]; 24 h treatment) [µM] | IC50 ([5]; 72 h (24 + 48 h recovery)) [µM] | times more effective than the reference drug cisplatin ([1]; A549, IC50 comparison) | selectivity index (SI – IC50 (normal cell line)/IC50 (cancer cell line)) ([1]; A549 cell line) |
| --- | --- | --- | --- | --- | --- | --- | --- | --- | --- | --- | --- | --- |
| O=[N+]([O-])[O-].O=[N+]([O-])[O-].[Cu+2].c1cnc2c(c1)ccc1cccnc12 [Cu(phen)(NO3)2, reference compound] | 537 ± 13.2 | 721 ± 15.1 | 318 ± 12.2 | 426 ± 9.9 | 412 ± 10.9 | 659 ± 14.5 | 933 ± 13.6 | 1110 ± 18.5 | 81.8 ± 8.2 | 42.4 ± 9.1 | – | – |
| N.N.[Cl][Pt][Cl] [cisplatin (CDDP), cisplatin, reference compound] | 0.057 ± 1.3e-06 | 71.7 ± 3.7 | 51.9 ± 4.6 | 17.7 ± 8.6 | 0.0683 ± 1.3e-06 | 65.5 ± 3.6 | 2.6 ± 0.6 | 8.3 ± 0.4 | 21 ± 1.8 | 10.3 ± 2.1 | – | – |
| [Ir(η^5-Cp*)Cl2Pcfx-Cu(phen)](NO3)·1.75(CH3OH)·0.75(H2O) [IrPcfxCu (1)] | 0.0355 ± 5.6e-06 | 0.000424 | 35.3 ± 6.5 | > 1000 | 1.28e-06 | 126 ± 3.4 | 0.0052 ± 4.1e-06 | 137 ± 2.2 | 787 ± 11.2 | 887 ± 12.7 | – | – |
| [Ir(η^5-Cp*)Cl2Plfx-Cu(phen)](NO3)·1.3(H2O)·1.95(CH3OH) [IrPlfxCu (3)] | 0.0316 ± 7.6e-06 | 0.36 ± 0.00022 | 24.2 ± 7.2 | > 1000 | 0.0142 ± 2.4e-06 | 126 ± 4.4 | 0.0101 ± 2.2e-06 | 229 ± 25.9 | 776 ± 15.7 | 823 ± 12.3 | – | – |
| [Ir(η^5-Cp*)Cl2Pnfx-Cu(phen)](NO3)·1.75(CH3OH)·0.75(H2O) [IrPnfxCu (2)] | 0.0112 ± 7.8e-06 | 0.0366 ± 2.8e-06 | 30 ± 0.7 | > 1000 | 0.00108 ± 1.9e-08 | 123 ± 5.4 | 0.0099 ± 3.8e-06 | 155 ± 3.2 | 756.8 ± 5.7 | 857 ± 15.9 | – | – |
| [Ir(η^5-Cp*)Cl2Psfx-Cu(phen)] [IrPsfxCu (4)] | 0.0181 ± 1.3e-06 | 0.6 ± 0.00029 | 10.5 ± 0.8 | > 1000 | 0.0101 ± 2.9e-06 | 53.6 ± 0.4 | 0.0062 ± 2.4e-06 | 212 ± 10.5 | 677 ± 9.2 | 777 ± 15.3 | more than 100 | approximately 1290 |
